{
  "source": "patent US5776892A",
  "about": "“Anti-inflammatory peptides” (Curative Health Services, Inc., priority 1994, dated 1998)",
  "key": {"[1]": {"test_system": "neutrophils", "experiment": "Neutrophil chemotaxis to f-Met-Leu-Phe (Neuroprobe chamber, fluorescence 530 nm)", "type": "cell-based", "conditions": "15 min pre-exposure; read at 1 hr; FIG. 3", "description": "(§1) The ability of CT-112 (SEQ. ID NO: 1) to inhibit chemotaxis of neutrophils in response to a variety of agents was assessed using Neuroprobe chemotaxis chambers. For these assays, neutrophils were resuspended in Hank's balanced salt solution with Ca^2+ and Mg^2+ to give a 5×10^6 cells/ml suspension after the cells were labeled with 1',7'-bis(2-carboxyethyl)-5-(6)-carboxyfluorescein. The neutrophils were exposed to CT-112 (SEQ. ID NO: 1) for approximately 15 min prior to addition to the chemotaxis chambers. CT-112 (SEQ. ID NO: 1) was present in both the top and bottom of the chambers, and the chemoattractant, either f-Met-Leu-Phe, leukotriene B4 or interleukin-8, was added to the bottom of chamber. Cells which had migrated through the membrane were determined by fluorescence at 530 nm at 1 hr after initiation of the assay."}, "[2]": {"test_system": "neutrophils", "experiment": "Neutrophil chemotaxis to interleukin-8", "type": "cell-based", "conditions": "15 min pre-exposure; read at 1 hr; FIG. 5", "description": "as §1"}, "[3]": {"test_system": "neutrophils", "type": "cell-based", "excerpt": "In addition, CT-112 (SEQ. ID NO: 1) was not cytotoxic to neutrophils, as determined by viability testing using trypan blue exclusion (FIG. 3)."}, "[4]": {"test_system": "carrageenan-induced peritonitis", "experiment": "Carrageenan-induced peritonitis, inflammatory cell influx in peritoneal lavage", "type": "in vivo, mouse", "conditions": "60 mg/kg/day minipump", "description": "(§2) Mice (C57BL/6UAF, females, 12 weeks old) were implanted with Alzet mini pumps set to deliver 60 mg CT-112/kg/day. Six days post-implantation, the mice were challenged with an intraperitoneal injection of 0.3 ml of carrageenan in PBS (10 mg/ml). The peritoneal cavity was lavaged with 15 ml of Hank's Balanced Salt Solution (Ca^2+ - and Mg^2+ -free) at 24, 48 and 72 hr post-challenge. The lavage fluid was centrifuged (500 g, 5 min), fixed with LeukoStat fixative and stained with LeukoStat staining solution. The slides were analyzed under a microscope for the different types of inflammatory cells, such as macrophages, lymphocytes and neutrophils. At the 48-hr time point, 5 control mice were also lavaged."}, "[5]": {"test_system": "carrageenan-induced peritonitis", "experiment": "Carrageenan-induced peritonitis, LTB4 and PGE2 in peritoneal lavage fluid", "type": "in vivo, mouse", "conditions": "60 mg/kg/day; 24 hr post-challenge", "description": "as §2, with “lavaged. In a separate study, the peritoneal lavage fluid was analyzed for total leukotriene B4 (LTB4) and prostaglandin E2 (PGE2) content at 24 hr post-challenge (Griswold et al., 1991, Biochem. Pharmacol. 42(4):825-831).” for “lavaged.”"}, "[6]": {"test_system": "mouse bone marrow polychromatic erythrocyte", "conditions": "in vivo"}},
  "note": "No end group written: not given here.",
  "data": [
    {"sequence": "TTSQVRPR [CT-112, octapeptide derived from platelet factor 4]", "values": [
      {"measurement": "chemotactic migration of neutrophils to f-Met-Leu-Phe", "setting": "[1]", "result": "effectively inhibited"},
      {"measurement": "chemotactic migration of neutrophils to interleukin-8", "setting": "[2]", "result": "not to interleukin-8"},
      {"measurement": "cytotoxicity to neutrophils (trypan blue exclusion)", "setting": "[3]", "result": "not cytotoxic"},
      {"measurement": "Absolute Cell Number, Lymphocytes", "setting": "[4]; 24 hr post carrageenan", "result": "16.9 ± 5.9"},
      {"measurement": "Absolute Cell Number, Macrophages", "setting": "[4]; 24 hr post carrageenan", "result": "19.5 ± 10"},
      {"measurement": "Absolute Cell Number, Neutrophils", "setting": "[4]; 24 hr post carrageenan", "result": "106 ± 29"},
      {"measurement": "Absolute Cell Number, Lymphocytes", "setting": "[4]; 48 hr post carrageenan", "result": "12.5 ± 7.6"},
      {"measurement": "Absolute Cell Number, Macrophages", "setting": "[4]; 48 hr post carrageenan", "result": "126 ± 43"},
      {"measurement": "Absolute Cell Number, Neutrophils", "setting": "[4]; 48 hr post carrageenan", "result": "134 ± 77"},
      {"measurement": "Absolute Cell Number, Lymphocytes", "setting": "[4]; 72 hr post carrageenan", "result": "45.1 ± 42"},
      {"measurement": "Absolute Cell Number, Macrophages", "setting": "[4]; 72 hr post carrageenan", "result": "255 ± 125"},
      {"measurement": "Absolute Cell Number, Neutrophils", "setting": "[4]; 72 hr post carrageenan", "result": "48.4 ± 28"},
      {"measurement": "LTB4 (pg in peritoneal lavage)", "setting": "[5]", "result": "16.8 ± 11.5", "unit": "pg"},
      {"measurement": "PGE2 (pg in peritoneal lavage)", "setting": "[5]", "result": "13.1 ± 6.9", "unit": "pg"},
      {"measurement": "micronuclei", "setting": "[6]", "result": "did not induce a significant increase in micronuclei"}
    ]}
  ]
}
